The values below come from patent publication US9212205B2, “Nucleic acid binding compounds and methods of use” (University of Rochester, priority 2007, dated 2015).

Assay [1] deals with HIV-1 frameshift regulatory RNA sequence (Seq I, SEQ ID NO:1). The assay can be described thus: SPR binding of immobilized dimers to RNA. As to conditions: read-out: dissociation constant (Kd), affinity to the HIV-1 frameshift regulatory RNA sequence. How it is done:
(§1) Graphical analysis of Surface Plasmon Resonance (SPR) data was carried out using DeltaGraph (Rockware Inc.). SPR analysis was conducted on a Reichert SR7000 refractometer using Reichert gold sensor slides that consist of a mixed self-assembled monolayer of thiol-PEG-alcohols and thio-PEG-carboxylic acids (˜9:1; PEG=polyethylene glycol). Amine functionalized small molecules were attached by […]/EDC coupling to the carboxy termini of the surface. After activating the monolayer, molecules were covalently attached through the addition of a 1 mg/mL solution of molecule in a sodium acetate buffer (20 mM, pH=5.5). Unreacted activated esters were quenched through the addition of ethanolamine. […]
To confirm this hypothesis, dissociation constants (Kd) were measured for dimers 1-1 and 1-3 by SPR (FIG. 7A) (Whitney et al., “Templated Ligand Assembly by Using G-quadruplex DNA and Dynamic Covalent Chemistry,” Angew. Chem. Int. Ed. 43:1143-1146 (2004); Lacy et al., “Influence of a Terminal Formamido Group on the Sequence Recognition of DNA by Polyamides,” J. Am. Chem. Soc. 124:2153-2163 (2002); Carrasco et al., “DNA Sequence Recognition by the Indolocarbazole Antitumor Antibiotic AT2433-B1 and Its Diastereoisomer,” Nucleic Acids Res. 30:1774-1781 (2002), each of which is hereby incorporated by reference in its entirety).
For orientation: Surface plasmon resonance follows binding to a sensor surface in real time, without labels.

Assay [2] has as its target HIV-1 frameshift-inducing RNA stem-loop (SEQ ID NO:1). Briefly: Fluorescence titration of Cy-3 labeled HIV-1 RNA stem-loop. As to conditions: stem-loop 4 × 10^−7 M, PBS buffer, 25° C. The format is binding. How it is done: The binding of dicarba analogs to the HIV-1 frameshift-inducing RNA was measured using fluorescence spectroscopy. Fluorescence titrations were performed on a Varian Cary eclipse fluorescence spectrophotometer using 1 cm path-length quartz fluorescence cell. The solution of Cy-3 labeled HIV-1 RNA stem-loop in PBS buffer (400 μL, 400 nM) was taken in the cell and excited with a wavelength of 550 nm. A PMT voltage of 715 V was used for collecting the fluorescence data and the emission spectrum was collected from 555 to 600 nm wavelength range. The ligand solution in PBS buffer was added to the target RNA in the cell in either 2 or 4 μL increments and was allowed to equilibrate for 10 minutes before recording the emission spectrum. Statistical analysis of the data was carried out using Origin 7 (OriginLab corporation). Binding constants were determined by fitting the data to one-site binding model equation.
A 5′-Cy3 labeled upper stem-loop of HIV-1 RNA (SEQ ID NO:1) was titrated with increasing amount of the dicarba analogs in a phosphate buffer (PBS, pH 7.4) using the same protocol to that described in Example 3 above. The fluorescence intensity of the labeled RNA stem-loop decreased as a function of the ligand concentration. […] Normally, one would expect a greater difference between the affinities of the two isomers.
To further evaluate the binding selectivity of dicarba analogs to the frameshift-inducing stem-loop, fluorescence titrations were repeated in the presence of twenty-fold excess concentration of yeast tRNA. […] In an interesting result it was discovered that the monomeric compound (5) also bound to the HIV-1 RNA stem-loop with similar affinity as that of the other analogs, but the binding affinity was diminished in the presence of tRNA. […] Quinoline is a known intercalator of nucleotide bases and has the capability to interact with RNA non-specifically. But it is the peptidic part of the molecule in ligands 5-5 E and 5-5 Z that imparts specificity to the interaction between the ligand and the RNA stem-loop. The peptidic part on monomer 5 is insufficient to impart specificity to the interaction as evident from the results.

In assay [3] the target is RNA stem loop with an altered loop sequence (Seq IV, SEQ ID NO:4). The assay can be described thus: SPR binding specificity, Seq IV. Particulars: read-out: affinity for sequence IV. How it is done: as §1, with “ethanolamine. A flow rate of 10 μL/min and injection volumes of 150 μL was used throughout the experiment. RNA solutions were made to be 15.3 nM, 62.5 nM, 250 nM, 500 nM, 1 μM, 2 μM, 10 μM, and 50 μM.” for “ethanolamine.”
(§2) Specificity was assessed by measuring the affinity of 1-1 to three other oligonucleotides: the DNA sequence homologous to I (Seq II, FIG. 7C, SEQ ID NO:2), the alternate RNA stem-loop (Seq III, FIG. 7D, SEQ ID NO:3) (Karan et al., “RNA-Selective Coordination Complexes Identified via Dynamic Combinatorial Chemistry,” J. Am. Chem. Soc. 123:7455-7456 (2001), which is hereby incorporated by reference in its entirety), and an RNA stem loop with an altered loop sequence (Seq IV, FIG. 7E, SEQ ID NO:4).

For assay [4], the target named is DNA sequence homologous to I (Seq II, SEQ ID NO:2). The assay can be described thus: SPR binding specificity, Seq II. How it is done: as §1, with “ethanolamine. A flow rate of 10 μL/min and injection volumes of 150 μL was used throughout the experiment. RNA solutions were made to be 15.3 nM, 62.5 nM, 250 nM, 500 nM, 1 μM, 2 μM, 10 μM, and 50 μM.” for “ethanolamine.”
as §2

In assay [5] the target is alternate RNA stem-loop (Seq III, SEQ ID NO:3). Briefly: SPR binding specificity, Seq III. Here is the method: as §1, with “ethanolamine. A flow rate of 10 μL/min and injection volumes of 150 μL was used throughout the experiment. RNA solutions were made to be 15.3 nM, 62.5 nM, 250 nM, 500 nM, 1 μM, 2 μM, 10 μM, and 50 μM.” for “ethanolamine.”
as §2

Like-named read-outs stand apart in the source and are kept apart here. Some results are limits rather than exact numbers.

As to `CCc1nc2ccccc2cc1C(=O)N[C@@H](CSSC[C@H](NC(=O)c1cc2ccccc2nc1CC)C(=O)N1CCC[C@H]1C(=O)N[C@@H](Cc1ccccc1)C(=O)NCCCN)C(=O)N1CCC[C@H]1C(=O)N[C@@H](Cc1ccccc1)C(=O)NCCCN` [dimer 1-1], the Kd in assay [1] was 1.9 µM; in assay [2] (8 μM tRNA (twenty-fold excess), read-out: Binding Affinity (Kd) in the presence of excess yeast tRNA), 0.32 ± 0.07 µM; in assay [2] (fluorescence titration, read-out: Binding Affinity (Kd)), 0.35 ± 0.11 µM; in assay [3] it was over 90 µM. In addition, in assay [4], the “affinity for sequence II” value was “no measurable affinity”. The “affinity for sequence III” value in assay [5] is “no measurable affinity”.
